Values quoted from earlier work, collected in patent US20090035369A1, “Composition and Methods for Treating and Preventing Age-Related Macular Degeneration” (priority 2006, published 2009).

Assays:
[1] = test system: neovascularization; details: rodent model
[2] = pure DIM
[3] = pure DIM; remark: listed apart in the source

**Q.** Which inhibition of neovascularization [1] does the source give for `c1ccc2c(Cc3c[nH]c4ccccc34)c[nH]c2c1` [DIM, 3,3′-diindolylmethane] here?
**A.** up to 76%

**Q.** And the solubility [2]?
**A.** insoluble

**Q.** And the “absorption by the human body” value [3]?
**A.** poorly absorbed
